The values that follow come from ChEMBL document CHEMBL4402608 (J Med Chem, 2020).

Broadly, the inhibition is the share of the control response that was lost under treatment. The Ki is a dissociation constant, usually derived from enzyme kinetics or from competition with a known ligand.

In data set [1] the target is muscarinic M5 receptor (Homo sapiens, UniProt P08912). In words: Displacement of [3H]-QNB/[3H]-NMS from human muscarinic M5 receptor expressed in stable CHO cell membranes at 10 uM after 90 mins by microbeta scintillation counting method relative to control. The note with it: probe [3H]-QNB/[3H]-NMS.
Data set [2] deals with Alpha-2A adrenergic receptor (Homo sapiens, UniProt P08913). The experiment in a line: Displacement of [3H]-rauwolscine from recombinant human alpha2A adrenergic receptor stably expressed in MDCK cell membranes at 10 uM measured after 90 mins by microbeta scintillation counting method relative to control. As to conditions: probe [3H]-rauwolscine; call rule not given here.
Data set [3] has as its target T1, Alpha-2C adrenergic receptor (Homo sapiens, UniProt P18825).
T1 sequence (P18825 whole entry): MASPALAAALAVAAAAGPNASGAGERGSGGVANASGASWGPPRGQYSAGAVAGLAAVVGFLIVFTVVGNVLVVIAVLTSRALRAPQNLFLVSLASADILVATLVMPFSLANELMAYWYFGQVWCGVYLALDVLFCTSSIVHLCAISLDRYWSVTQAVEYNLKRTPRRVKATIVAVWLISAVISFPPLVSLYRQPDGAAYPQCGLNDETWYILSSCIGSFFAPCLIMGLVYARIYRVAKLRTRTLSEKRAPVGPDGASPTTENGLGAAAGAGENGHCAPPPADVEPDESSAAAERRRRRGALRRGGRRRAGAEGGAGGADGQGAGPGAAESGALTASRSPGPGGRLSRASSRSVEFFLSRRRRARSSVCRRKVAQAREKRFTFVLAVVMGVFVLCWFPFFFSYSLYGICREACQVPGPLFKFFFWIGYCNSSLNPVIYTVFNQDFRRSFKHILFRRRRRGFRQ
The experiment in a line: Displacement of [3H]-rauwolscine from recombinant human alpha2C adrenergic receptor stably expressed in MDCK cell membranes at 10 uM measured after 90 mins by microbeta scintillation counting method relative to control. As to conditions: probe [3H]-rauwolscine. (Displacement assays read how much labelled ligand stays bound in the presence of the test substance.)

Data set [4] deals with Histamine H1 receptor (Homo sapiens, UniProt P35367). In words: Displacement of [3H]-pyrilamine from human histamine H1 receptor expressed in stable HEK cell membranes after 90 mins by microbeta scintillation counting method.
Data set [5] addresses Histamine H3 receptor (Homo sapiens, UniProt Q9Y5N1). In words: Displacement of [3H]-alpha-methylhistamine from recombinant human histamine H3 receptor expressed in HEK Flp-In cell membranes measured after 90 mins by microbeta scintillation counting method.
Data set [6] addresses Sodium-dependent serotonin transporter (Homo sapiens, UniProt P31645). In words: Displacement of [3H]-citalopram from human SERT receptor expressed in stable HEK cell membranes after 90 mins by microbeta scintillation counting method.
Data set [7] concerns the target sigma 2 receptor (Homo sapiens, UniProt Q5BJF2). The experiment in a line: Displacement of [3H]-DTG from sigma 2 receptor (unknown origin) at 10 uM measured after 90 mins by microbeta counting analysis relative to control. The note with it: probe [3H]-DTG.
In data set [8] the target is T2, Alpha-1B adrenergic receptor (Homo sapiens, UniProt P35368).
T2 sequence (P35368 whole entry): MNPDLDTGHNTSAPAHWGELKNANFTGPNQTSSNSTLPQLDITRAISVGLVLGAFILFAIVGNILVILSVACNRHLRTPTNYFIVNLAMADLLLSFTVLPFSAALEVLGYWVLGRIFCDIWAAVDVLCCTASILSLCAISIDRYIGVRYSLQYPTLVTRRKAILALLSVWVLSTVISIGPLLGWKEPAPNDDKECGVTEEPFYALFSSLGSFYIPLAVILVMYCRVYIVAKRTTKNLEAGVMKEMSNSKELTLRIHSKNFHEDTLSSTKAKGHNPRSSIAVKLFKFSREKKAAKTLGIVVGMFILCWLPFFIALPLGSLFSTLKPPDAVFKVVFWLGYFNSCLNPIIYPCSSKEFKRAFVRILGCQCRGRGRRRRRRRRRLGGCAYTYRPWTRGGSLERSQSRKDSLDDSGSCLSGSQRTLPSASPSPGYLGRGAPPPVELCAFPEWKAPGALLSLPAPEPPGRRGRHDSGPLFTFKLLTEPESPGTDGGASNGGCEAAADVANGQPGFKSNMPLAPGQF
In words: Displacement of [3H]-prazosin from recombinant human alpha1B adrenergic receptor transiently expressed in HEKT cell membranes measured after 90 mins by microbeta scintillation counting method.

For data set [9], the target named is Kappa-type opioid receptor (Homo sapiens, UniProt P41145). In words: Displacement of [3H]-U69593 from KOR (unknown origin) measured after 90 mins by microbeta scintillation counting method.
The target in data set [10] is 5-hydroxytryptamine receptor 1A (Homo sapiens, UniProt P08908). The experiment in a line: Displacement of [3H]-Way100635 from recombinant human 5HT1A receptor stably expressed in CHO cell membranes measured after 90 mins by microbeta scintillation counting method.
Data set [11] concerns the target T3, Histamine H2 receptor (Homo sapiens, UniProt P25021). The experiment in a line: Displacement of [125I]-Iodo-aminopotentidine from human histamine H2 receptor expressed in stable HEK cell membranes at 10 uM after 90 mins by microbeta scintillation counting method relative to control. The note with it: probe [125I]-Iodo-aminopotentidine.
Data set [12] has as its target T3, Histamine H2 receptor. The experiment in a line: Displacement of [125I]-Iodo-aminopotentidine from human histamine H2 receptor expressed in stable HEK cell membranes after 90 mins by microbeta scintillation counting method.
The target of data set [13] is Sodium-dependent dopamine transporter (Homo sapiens, UniProt Q01959). In words: Displacement of [3H]-Win35428 from human DAT expressed in stable HEK cell membranes after 90 mins by microbeta scintillation counting method.
The target in data set [14] is 5HT6 receptor (Homo sapiens, UniProt P50406). The experiment in a line: Displacement of [3H]-LSD from recombinant human 5HT6 receptor stably expressed in HEK cell membranes at 10 uM measured after 90 mins by microbeta scintillation counting method relative to control. The note with it: probe [3H]-LSD.
Data set [15] addresses 5HT1B receptor (Homo sapiens, UniProt P28222). In words: Displacement of [3H]5-CT from recombinant human 5HT1B receptor stably expressed in HEK cell membranes at 10 uM measured after 90 mins by microbeta scintillation counting method relative to control. As to conditions: probe [3H]5-CT.
Data set [16] addresses beta3 adrenergic receptor (Homo sapiens, UniProt P13945). In words: Displacement of [3H]-CGP12177 from recombinant human beta3 adrenergic receptor expressed in HEK Flp-In cell membranes at 10 uM measured after 90 mins by microbeta scintillation counting method relative to control. The note with it: probe [3H]-CGP12177.
The target in data set [17] is muscarinic M1 receptor (Homo sapiens, UniProt P11229). The experiment in a line: Displacement of [3H]-QNB/[3H]-NMS from human muscarinic M1 receptor expressed in stable CHO cell membranes at 10 uM after 90 mins by microbeta scintillation counting method relative to control. As to conditions: probe [3H]-QNB/[3H]-NMS.
For data set [18], the target named is mu opioid receptor (MOR) (Homo sapiens, UniProt P35372). The experiment in a line: Displacement of [3H]-DAMGO from recombinant human MOR stably expressed in HEK cell membranes at 10 uM measured after 90 mins by microbeta scintillation counting method relative to control. The note with it: HEK cell membranes stably expressing recombinant human MOR, probe [3H]-DAMGO.

In data set [19] the target is 5HT5A receptor (Homo sapiens, UniProt P47898). The experiment in a line: Displacement of [3H]-LSD from recombinant human 5HT5A receptor stably expressed in Flp-In CHO cell membranes at 10 uM measured after 90 mins by microbeta scintillation counting method relative to control. The note with it: probe [3H]-LSD.

In the case of `CCCN(CC[C@]1(O)C[C@H](NC(=O)c2ccc3ccccc3c2)C1)[C@H]1CCc2nc(N)sc2C1`, the inhibition at […], 10 µM in data set [1] was over 50%; in [2] it was under 50%; in data set [3], under 50%; in [7], under 50%; in data set [11], over 50%; in data set [14] it was under 50%. Also, the inhibition at […], 10 µM in data set [15] was under 50%; in [16], under 50%; in [17] it was under 50%; in data set [18], over 50%; in data set [19], under 50%. For the same compound, the inhibitory constant (Ki) is 110 nM in [4] (read-out: Ki); 893 nM in data set [5] (read-out: Ki); 32 nM in [6] (read-out: Ki); 666 nM in data set [8] (read-out: Ki); over 10000 nM in data set [9] (read-out: Ki); 708 nM in [10]. Further, the Ki in data set [12] is 224 nM; in data set [13] (read-out: Ki), 205 nM.

`CCCN[C@H]1CCc2nc(N)sc2C1` [PRAMIPEXOLE]: the inhibition at […], 10 µM in data set [1] is under 50%; in data set [2] it was over 50%; in data set [3] it was over 50%; in data set [7], under 50%; in data set [11] it was over 50%; in data set [14] it was over 50%. Also, the inhibition at […], 10 µM in [15] is over 50%; in [16], over 50%; in data set [17], over 50%; in data set [18], under 50%; in data set [19], over 50%. Also, the Ki entry was “Not Active” in data set [4]; “Not Active” in data set [5]; “Not Active” in data set [6]; “Not Active” in data set [8]; “Not Active” in data set [9]; 6510 nM in [10]. The inhibitory constant (Ki) is 2680 nM in data set [12] and “Not Active” in data set [13].
